Results taken from US9006467B2, “1,2,3-triazole containing artemisinin compounds and process for preparation thereof” (Councel of Scientific & Industrial Research, priority 2011, dated 2015).
pIC50: −log10 of the molar value.

How the values were obtained:
[1] = test system: human liver cell line of HEP-2 type; experiment: In vitro cytotoxicity against human cancer cell lines (sulforhodamine B), Liver HEP-2; type: cell-based; details: 1 × 10^−5 M, 48 hours
Description: The human cancer cell lines procured from National Cancer Institute, Frederick, U.S.A., were used in present study. Cells were grown in tissue culture flasks in complete growth medium (RPMI-1640 medium with 2 mM glutamine, 100 μg/mL streptomycin, pH 7.4, sterilized by filtration and supplemented with 10% fetal bovine serum and 100 units/ml penicillin before use) at 37 QC in an atmosphere of 5% CO2 and 90% relative humidity in a carbon dioxide incubator. The cells at subconfluent stage were harvested from the flask by treatment with trypsin (0.05% in PBS containing 0.02% EDTA) for determination of cytotoxicity. […]
In vitro cytotoxicity against human cancer cell lines was determined (Monks et al., J. Natl. Cancer Inst. 1991, 83, 757-766). […] Cell growth was measured by staining with sulforhodamine B dye (Skehan et al., J. Natl. Cancer Inst. 1990, 82, 1107-1112). […] The optical density (OD) was recorded on ELISA reader at 540 nm.
The cell growth was calculated by subtracting mean OD value of respective blank from the mean OD value of experimental set. Percent growth in presence of test material was calculated considering the growth in absence of any test material as 100% and in turn percent growth inhibition in presence of test material was calculated. […]

[2] = test system: colon HCT-15 human cancer cell line; experiment: In vitro cytotoxicity against human cancer cell lines (sulforhodamine B), colon HCT-15; type: cell-based; details: 1 × 10^−5 M, 48 hours, read-out: % GROWTH INHIBITION colon HCT-15
Description: (§1) The human cancer cell lines procured from National Cancer Institute, Frederick, U.S.A., were used in present study. Cells were grown in tissue culture flasks in complete growth medium (RPMI-1640 medium with 2 mM glutamine, 100 μg/mL streptomycin, pH 7.4, sterilized by filtration and supplemented with 10% fetal bovine serum and 100 units/ml penicillin before use) at 37 QC in an atmosphere of 5% CO2 and 90% relative humidity in a carbon dioxide incubator. The cells at subconfluent stage were harvested from the flask by treatment with trypsin (0.05% in PBS containing 0.02% EDTA) for determination of cytotoxicity. The cell suspension of the required cell density was prepared in complete growth medium with gentamycin (50 μg/mL) for determination of cytotoxicity.
(§2) Stock solutions of 2×10^−2M of test materials were prepared in DMSO. The stock solutions were serially diluted with complete growth medium containing 50 μg/ml of gentamycin to obtain working test solution of 2×10^−5M to obtain final concentration of 1×10^−5M respectively.
(§3) In vitro cytotoxicity against human cancer cell lines was determined (Monks et al., J. Natl. Cancer Inst. 1991, 83, 757-766). The 100 μL of cell suspension was added to each well of the 96-well tissue culture plate. The cells were incubated for 24 hours (at 37° C. in an atmosphere of 5% CO2 and 90% relative humidity in a carbon dioxide incubator). Test materials in complete growth medium (100 μL) were added after 24 hours incubation to the wells containing cells. The plates were further incubated for 48 hours in a carbon dioxide incubator after addition of test material. The cell growth was stopped by gently layering trichloroacetic acid (50 μL, 50% w/v) on top of the medium in all the wells. The plates were incubated at 4° C. for one hour to fix the cells attached to the bottom of the wells. The liquid of all the wells was then gently decanted and discarded. The plates were washed five times with distilled water and air-dried. Cell growth was measured by staining with sulforhodamine B dye (Skehan et al., J. Natl. Cancer Inst. 1990, 82, 1107-1112). The adsorbed dye was dissolved in Tris-Buffer (100 μL, 0.01M, pH 10.4) and plates were gently stirred for 10 minutes on a mechanical stirrer. The optical density (OD) was recorded on ELISA reader at 540 nm.
(§4) The cell growth was calculated by subtracting mean OD value of respective blank from the mean OD value of experimental set. Percent growth in presence of test material was calculated considering the growth in absence of any test material as 100% and in turn percent growth inhibition in presence of test material was calculated. Suitable blank, controls and positive controls were included in the study.

[3] = test system: leukaemia THP-1; experiment: In vitro cytotoxicity against human cancer cell lines (sulforhodamine B), leukaemia THP-1; type: cell-based; details: 48 hours, read-out: % GROWTH INHIBITION leukaemia THP-1; for inhibition at 10 µM: 1 × 10^−5 M; for inhibition at 50 µM: 5 × 10^−5 M
Description: as §1, §2, §3, §4

[4] = test system: colon HCT-15 human cancer cell line; experiment: In vitro cytotoxicity against human cancer cell lines (sulforhodamine B), colon HCT-15; type: cell-based; details: 48 hours, read-out: % GROWTH INHIBITION colon HCT-15; for inhibition at 50 µM: 5 × 10^−5 M
[5] = test system: Lung cancer cell A-549; experiment: In vitro cytotoxicity against human cancer cell lines (sulforhodamine B), Lung A-549; type: cell-based; details: 48 hours, read-out: % GROWTH INHIBITION Lung A-549; for inhibition at 10 µM: A549, 1 × 10^−5 M; for inhibition at 50 µM: A549, 5 × 10^−5 M
Description: as §1, §2, §3, §4

[6] = test system: CMV; details: cited from earlier work
[7] = test system: Ehrlich ascites tumor (EAT) cells; details: MTT assay, read-out: IC50 (drug concentration causing 50% growth inhibition of the tumor cells); cited from earlier work
[8] = test system: cell line panels consisting of 60 lines; details: nine disease-related subpanels; cited from earlier work
[9] = test system: P388 leukemia; details: NCI Report on NSC 369397; cited from earlier work
[10] = test system: CMV; details: cited from earlier work; remark: listed apart in the source

Row | SMILES | inhibition at 10 µM [2] [%] | inhibition at 10 µM [3] [%] | inhibition at 50 µM [3] [%] | inhibition at 50 µM [4] [%] | inhibition at 10 µM [5] [%] | inhibition at 50 µM [5] [%] | also measured
1 | CO[C@@]12[C@H](COC(N)=O)C3=C(C(=O)C(C)=C(N)C3=O)N1C[C@@H]1N[C@@H]12 [Mitomycin-c] | – | – | – | – | – | – | % GROWTH INHIBITION Liver HEP-2 [1]: 58%
2 | C[C@H]1[C@H](OCCc2cn(C3O[C@@H]4O[C@@]5(C)CC[C@H]6[C@H](C)CC[C@@H]([C@H]3C)[C@@]46OO5)nn2)O[C@@H]2O[C@]3(C)CC[C@H]4[C@H](C)CC[C@@H]1[C@@]24OO3 (some centres unmarked) [Compound 15] | 66 | 78 | 79 | 70 | 29 | 48 | –
3 | C[C@H]1[C@H](OCc2cn(-c3ccc(-c4ccc(-n5cc(CO[C@@H]6O[C@@H]7O[C@@]8(C)CC[C@H]9[C@H](C)CC[C@@H]([C@H]6C)[C@@]79OO8)nn5)cc4)cc3)nn2)O[C@@H]2O[C@@]3(C)CC[C@H]4[C@H](C)CC[C@@H]1[C@@]24OO3 [Compound 12] | 75 | 75 | 80 | 78 | 56 | 64 | –
4 | C[C@@H]1CC[C@H]2[C@@H](C)C(=O)O[C@@H]3O[C@@]4(C)CC[C@@H]1[C@]32OO4 [Artemisinin, artemisinin] | 29 | – | – | 31 | 19 | 29 | anti-CMV activity, in words ([6]; in-vitro): lower anti-CMV activity compared to artesunate; pIC50 [7]: 4.53; anticancer activity in 60 cell line panel [8]: very little anticancer activity; activity against P388 leukemia [9]: inactive
5 | C[C@H]1[C@H](OC(=O)CCC(=O)O)O[C@@H]2O[C@@]3(C)CC[C@H]4[C@H](C)CC[C@@H]1[C@@]24OO3 [artesunate, sodium artesunate] | – | – | – | – | – | – | CMV replication in rat CMV model [10]: inhibit CMV replication; in-vitro inhibition of clinical isolates ([6]; 11.1 μM): 50-80%; cytotoxicity ([6]; CMV replication study): no cytotoxicity
6 | C[C@H]1[C@H](OCCc2cn(-c3ccc(-c4ccc(-n5cc(CCO[C@@H]6O[C@@H]7O[C@@]8(C)CC[C@H]9[C@H](C)CC[C@@H]([C@H]6C)[C@@]79OO8)nn5)cc4)cc3)nn2)O[C@@H]2O[C@@]3(C)CC[C@H]4[C@H](C)CC[C@@H]1[C@@]24OO3 [Compound 13] | 56 | 63 | 82 | 66 | 41 | 46 | –
7 | C[C@H]1[C@H](OCc2cn(C3O[C@@H]4O[C@@]5(C)CC[C@H]6[C@H](C)CC[C@@H]([C@H]3C)[C@@]46OO5)nn2)O[C@@H]2O[C@]3(C)CC[C@H]4[C@H](C)CC[C@@H]1[C@@]24OO3 (some centres unmarked) [Compound 14] | – | – | 62 | 63 | – | 22 | –
8 | O=c1[nH]cc(F)c(=O)[nH]1 [5-Fluorouracil, reference compound] | – | – | – | – | – | – | inhibition at 20 µM ([3]; 2 × 10^−5 M): 73%; inhibition at 20 µM ([4]; 2 × 10^−5 M): 65%
